Publication PMC6773697, “Antileukemic activity of novel adenosine derivatives” (Scientific Reports, 2019)

How the values were obtained:
THP-1 cells [1] = assay: XTT cytotoxicity assay, THP-1; type: cell-based, human; details: Homo sapiens, THP-1; XTT, 48 h incubation, none in the picture
Method: (§1) The cytotoxic activity test with XTT (sodium 3′-[1-(phenylaminocarbonyl)- 3,4-tetrazolium]-bis (4-methoxy-6-nitro) benzene sulfonic acid hydrate) is a colorimetric method for determining the parameters associated with cell viability. The cytotoxicity in HL-60, THP-1, MOLT-4, and HMEC-1 cells was measured by the XTT assay. XTT is reduced to formazan by the mitochondrial respiratory chain oxidoreductase, which is active only in living cells. The formed crystals of formazan are dissolved directly in the medium. The amount of product is proportional to the number of live cells.
(§2) The IC50 parameter was determined by dividing the mean absorbance values of the drug-treated samples by those of control cells and defined as the drug concentration causing a 50% reduction of cell viability relative to the control. It was calculated using the “Ed50v10(1)” computer application. Cells were plated in 96-well plates at a density of 15 × 10^3 cells in 100 μL culture medium. Drugs were then added at a concentration range of 10 nM–10,000 nM to obtain a final volume of the mixture of 150 μL. Some cells were preincubated with an ATR kinase inhibitor (VE-821) for 1 h at 37 °C before adding the tested compounds. In this case drugs were added at a concentration range of 10 nM–300 nM. For the XTT assay, after 48 h of incubation, the plates were centrifuged at 1,500 rpm for 10 min at 4 °C, the culture medium was removed, and the cells were suspended in 100 mm^3 of HBSS (Hank’s Buffered Salt Solution) containing 140 mM NaCl, 5 mM KCl, 0.8 mM MgCl2, 1.8 mM CaCl2, 1 mM Na2HPO4, 10 mM HEPES (N- (2-hydroxyethyl) -piperazine-N′- (2-ethanesulfonic acid), and 1% glucose at pH 7.4. Then, 50 μL of XTT solution (in PBS) was added to a final concentration of […]. In addition, PMS (phenazine methosulphate) - methyl dibenzo-N-methylpyrazine sulphate (0.383 mg/cm^3) was used, which was combined with XTT solution at a ratio of 1:50. After 4 h of incubation with XTT, absorbance was measured at a wavelength λ = 450 nm and reference wavelength λ = 690 nm with a microplate reader (BioTek, Winooski, VT, USA).

MOLT-4 cells = assay: XTT cytotoxicity assay, MOLT-4; type: cell-based, human; details: Homo sapiens, MOLT-4; XTT, 48 h incubation, none in the picture
Method: as §1, §2

HL-60 cells [2] = assay: XTT cytotoxicity assay, HL-60; type: cell-based; details: Homo sapiens, 48 h incubation, none in the picture
Method: as §1, §2

HMEC-1 cells = assay: XTT cytotoxicity assay, HMEC-1 (normal dermal endothelium); type: cell-based; details: Homo sapiens, 48 h incubation, none in the picture
Method: as §1, §2

[3] = system: leukemic cells (HL-60, MOLT-4, THP-1); assay: XTT cytotoxicity assay, leukemic cells overall; type: cell-based, human; details: for cytotoxicity (in words): XTT, leukemic cell lines
Method: as §1, §2

dCK in THP-1 cells = assay: Deoxycytidine kinase activity, THP-1; type: cell-based, human; details: THP-1, 24 h incubation
Method: (§3) Deoxycytidine kinase activity was measured in accordance with the manufacturer’s protocol. The cells, at final concentration were plated at 1 × 10^6 cells per 24-well plates and cultured with the tested compounds for 24 h. Some cells were preincubated with an ATR kinase inhibitor (VE-821) for 1 h at 37 °C before adding the tested compounds. After drug treatment, the cells were washed with PBS and resuspended in an ice-cold cytosol extraction buffer containing 1 mM phenylmethylsulfonyl fluoride (PMSF) and a protease inhibitor cocktail. The cell lysate was centrifuged at 10,000 × g for 30 min at 4 °C. The protein concentration was determined using the Bradford method. The supernatant (cytosolic fraction) was collected and stored at −80 °C. The clarified cytoplasm extracts, dCK standards, and blank control were added to the appropriate microtiter plate wells with a biotin-conjugated polyclonal antibody prepared specifically for dCK. Avidin conjugated to horseradish peroxidase (HRP) was added to each microplate well and incubated. Then, a TMB substrate solution was added to the plate. […] The enzyme-substrate reaction was terminated by addition of a sulfuric acid solution. The color change was measured spectrophotometrically at a wavelength of 450 nm using a microplate reader (BioTek).

dCK in HL-60 cells = assay: Deoxycytidine kinase activity, HL-60; type: cell-based, human; details: HL-60, 24 h incubation
Method: as §3

dCK in MOLT-4 cells = assay: Deoxycytidine kinase activity, MOLT-4; type: cell-based, human; details: MOLT-4, 24 h incubation
Method: as §3

γH2AX in HL-60 cells = assay: H2AX (phospho S139) In-Cell ELISA, HL-60; type: cell-based, human; details: HL-60, 48 h, versus control cells
Method: The level H2AX protein phosphorylated Ser139 was measured in tested leukemia cells by using of In-Cell ELISA, ICE assay kit. The cells were seeded on 96-well plates (100 × 10^3/well) and 48 h later, incubated with the appropriate compounds. In some experimental variants, cells were preincubated for 1 h with VE-821 (10 µM). The cells were fixed by adding a final concentration of 4% paraformaldehyde solution (10 min, room temperature). After 2 h of Block Solution incubation, cells were treated with a highly specific antibody. A rabbit monoclonal antibody specific to H2AX (phospho S139) was used (at 1:100, 2 h incubation). Next Secondary Antibody Solution (at 1:1000) were added to the cells. The measurements were obtained on a fluorescence plate reader at an excitation wavelength of 680 nm and emission at 694 nm. The cells were PBS washed and 100 µL of Janus Green Stain was added to each well of the plate (5 min., room temperature). The data were collected at excitation wavelength of 750 nm and emission at 800 nm channel (Fluoroskan Cary Eclipse). Antibody signal intensity was normalized to the total amount using Janus Green cell-stain.

[4] = system: caspase-3/7 in HL-60 cells; assay: Caspase 3/7 assay, HL-60; type: cell-based, human; details: HL-60, 48 h
Method: (§4) The activities of caspases-3 and −7 were estimated with CellEvent™ Caspse-3/7 Green Detection Reagent (Thermo Fisher Scientific) according to the manufacturer’s protocol. The cells were seeded on 96-well plates (15 × 10^3/ well) and 24 h later, incubated with the appropriate drugs for 24 h or 48 h. The cells were fixed by adding a final concentration of 4% paraformaldehyde solution (10 min, room temperature). Cells were labeled with CellEvent™Caspase-3/7 Green Detection Reagent (5 µM), followed by Hoechst 33342 (5 µg/ml) for 15 minutes in complete medium3. Caspase-3/7 Green Detection Reagent was diluted into PBS with 5% FBS to avoid fluorescence background. After activation of caspase-3/7 in apoptotic cells, the DEVD peptide was cleaved, enabling the dye to bind DNA, which produced a bright, fluorogenic response with absorption/emission maxima of 502/530 nm according with manufacture protocol. Fluorescence intensity was measured using a Fluoroskan Ascent FL plate reader (Labsystem, Sweden). Cysteine protease activity was expressed as a ratio of fluorescence of the drug-treated samples to the corresponding untreated controls (taken as 100%). In some experimental variants, cells were preincubated for 1 h with VE-821 (10 µM) or Z-FA-FMK (caspas-3 inhibitor, 0.5 µM) to confirm that the fluorescence observed in both control and drug-treated cells was due to the presence of caspase-3/7 in samples. The caspase 3/7 signal was normalized to the Hoechst 33342 staining intensity to account for differences in cell seeding density (description in: Intracellular calcium assay section).

HL-60 cells [5] = assay: Comet assay with proteinase K post-treatment (DNA-protein cross-links), HL-60; type: cell-based, human; details: HL-60, starting at 2 h of incubation
Method: (§5) Single cell gel electrophoresis (comet assay) was used to detect alkali labile sites, single and double DNA strand breaks, and cross-links induced by genotoxic agents. After electrophoresis and gel staining with 4,6-diamidino-2-phenylindole (DAPI), the released DNA was visible under a fluorescence microscope as a characteristic comet tail. The cells were plated on 24-well plates (20,000 cells/mL) and treated with CLA, CLA-FMOR, CLA-FPIP, or CLA-FPIR at the indicated concentrations for 2, 24, and 48 h at 37 °C. Some cells were preincubated with an ATR kinase inhibitor (VE-821) for 1 h at 37 °C before adding the tested compounds. Next, cells were collected into Eppendorf tubes and rinsed with PBS. Then, cells were suspended in 0.75% low melting point (LMP) agarose dissolved in PBS (pH 7.4) and placed on microscope slides precoated with 0.5% normal melting point (NMP) agarose. Subsequently, the slides were treated with a cooled lysis buffer (2.5 M NaCl, 100 mM EDTA, 10 mM Tris, 1% Triton X-100, pH 9.0) for 1–24 h at 4 °C. Then, slides were placed in developing buffer (300 mM NaOH, 1 mM EDTA) for 20 min. Electrophoresis was performed in […] (30 mM NaOH, 1 mM EDTA) at 29 V and 30 mA for 20 min. The samples were stained with DAPI ([…]). The slides were stored in a wet chamber at 4 °C and analyzed under a fluorescence microscope. Fifty randomly selected cells from each slide were measured using image analysis (Nikon, Japan) attached to a COHU 4910 video camera, which was equipped with a UV-1 filter block consisting of an excitation filter (359 nm) and a barrier filter (461 nm) connected to the image analysis system Lucia-Comet v. 4.51 (Czech Republic)[41]. In the samples preincubated with VE-821, the level of DNA damage associated with the ATR kinase was determined.
Because cross-links can be undetectable in the alkaline comet assay, a variant of this method including post-treatment with proteinase K (Cat no: P2308) was used. Proteinase K digests peptide bonds, releasing the cross-linked DNA […] the DNA-protein complexes without altering the structure of the DNA-DNA complexes to distinguish them. After lysis, the slides were washed three times in TE buffer (10 mM Tris, pH 10, 1 mM EDTA). The cells were treated with aliquots of proteinase K (60 µL per slide; 1 mg/mL TE buffer) for 1 h at 37 °C in a wet chamber. Further steps of the comet assay were performed as described above.

THP-1 cells [6] = assay: Comet assay with proteinase K post-treatment (DNA-protein cross-links), THP-1; type: cell-based, human; details: THP-1, 24 h
Method: as §5
Because cross-links can be undetectable in the alkaline comet assay, a variant of this method including post-treatment with proteinase K (Cat no: P2308) was used. […]

[7] = system: caspase-3/7 in MOLT-4 cells; assay: Caspase 3/7 assay, MOLT-4; type: cell-based, human; details: MOLT-4, 48 h
Method: as §4, with “After activation of caspase-3/7 in apoptotic cells, the DEVD peptide was cleaved, enabling the dye to bind DNA, which produced a bright, fluorogenic response with absorption/emission maxima of 502/530 nm according with manufacture protocol.” left out, “The caspase 3/7 signal was normalized to the Hoechst 33342 staining intensity to account for differences in cell seeding density (description in: Intracellular calcium assay section).” left out

[8] = system: caspase-3/7 in THP-1 cells; assay: Caspase 3/7 assay, THP-1; type: cell-based, human; details: THP-1, 48 h
Method: as §4, with “After activation of caspase-3/7 in apoptotic cells, the DEVD peptide was cleaved, enabling the dye to bind DNA, which produced a bright, fluorogenic response with absorption/emission maxima of 502/530 nm according with manufacture protocol.” left out, “The caspase 3/7 signal was normalized to the Hoechst 33342 staining intensity to account for differences in cell seeding density (description in: Intracellular calcium assay section).” left out

SMILES	IC50 (THP-1 cells [1]) [nM]	IC50 (MOLT-4 cells) [nM]	IC50 (HL-60 cells [2]) [nM]	IC50 (HMEC-1 cells) [nM]	cytotoxicity (in words) [3]	also measured
OC[C@H]1O[C@@H](n2cnc3c(N=CN4CCCCCC4)nc(Cl)nc32)C[C@@H]1O [CLA-FHEX]	172	348	647	1080	low cytotoxicity	
CN(C)C=Nc1nc(Cl)nc2c1ncn2[C@H]1C[C@H](O)[C@@H](CO)O1 [CLA-FDMF, [6-deamino-6-(N′,N′-dimethyl formamidine)] cladribine]	220	220	184	412	low cytotoxicity	
CS(=O)(=O)c1ccc(-c2cnc(N)c(C(=O)Nc3ccccc3)n2)cc1 [C+VE-821, reference compound]						dCK activity (dCK in THP-1 cells): decreased dCK activity; dCK activity (dCK in HL-60 cells): decreased dCK activity; dCK activity (dCK in MOLT-4 cells): decreased dCK activity; effect of ATR inhibitor on cytotoxicity of CLA and derivatives ([3]; 10 μM VE-821 preincubation, XTT 48 h): reduces the cytotoxicity of all tested compounds
CN1CCN(C=Nc2nc(Cl)nc3c2ncn3[C@H]2C[C@H](O)[C@@H](CO)O2)CC1 [CLA-FPAZ]	168	353	190	710	low cytotoxicity	
Nc1nc(Cl)nc2c1ncn2[C@H]1C[C@H](O)[C@@H](CO)O1 [CLA, cladribine, reference compound]	56	103	246	126		increase in γH2AX level (γH2AX in HL-60 cells): ~ 2.4 fold
OC[C@H]1O[C@@H](n2cnc3c(N=CN4CCCCC4)nc(Cl)nc32)C[C@@H]1O [CLA-FPIP, [6-deamino-6-(N′, N′-1′, 5′-pentamethylene formamidine)] cladribine]	69	110	133	435	high cytotoxic activity	caspase-3/7 level [4]: highest changes; DNA-protein cross-links after proteinase K (HL-60 cells [5]): increased the level of cross-links; DNA damage in the tail after proteinase K (THP-1 cells [6]): increased
CC(NC(=O)[C@H](Cc1ccccc1)NC(=O)OCc1ccccc1)C(=O)CF (some centres unmarked) [Z-FA-FMK, reference compound]						caspase-3/7 level [4]: totally prevented caspase activation; caspase-3/7 level [7]: totally prevented caspase activation; caspase-3/7 level [8]: totally prevented caspase activation
